Patent US10501518B2 (priority 2013, dated 2019)
Starred links: 1 amine or outer side, 2 acyl side, 3 side chain; linkers in the order of their positions; H or OH if unused. Non-standard residues stand in square brackets, D forms with d. Residues, ends and D or L forms follow the SMILES beside them. *: point of attachment. NH(1S,2S-2-CONH2-cPent) = NC(=O)[C@H]1CCC[C@@H]1N*; X12 = O=C([C@H]1CCC[C@@H]1N[*:1])[*:2]; X13 = O=C([C@H]1CNC[C@@H]1N[*:1])[*:2]; ACPC(1S,2S) = N[C@H]1CCC[C@@H]1C(=O)*; hArg = N=C(N)NCCCC[C@H](N)C(=O)O; Aib = CC(C)(N)C(=O)O

Assays:
[1] = mouse, in vivo; cited from earlier work
[2] = Stability in simulated gastric fluid; assay type: in vitro ADME

| Compound | bioavailability (previously shown) [1] | stability in simulated gastric fluid [2] |
| --- | --- | --- |
| CC[C@H](C)[C@H](NC(=O)[C@H](CCC(=O)O)NC(=O)[C@H](C)NC(=O)[C@@H](NC(=O)[C@H](C)N)C(C)C)C(=O)N[C@@H](CCC(N)=O)C(=O)N[C@@H](CC(C)C)C(=O)N[C@@H](CCSC)C(=O)N[C@@H](Cc1cnc[nH]1)C(=O)N[C@@H](CCC(N)=O)C(=O)N[C@@H](CCCCNC(=N)N)C(=O)N[C@@H](C)C(=O)N[C@@H](CCCCN)C(=O)N[C@@H](Cc1c[nH]c2ccccc12)C(=O)N[C@@H](CC(C)C)C(=O)N[C@@H](CC(N)=O)C(=O)N[C@@H](CO)C(=O)N[C@@H](CCSC)C(=O)N[C@@H](CCCNC(=N)N)C(=O)N[C@@H](CCCNC(=N)N)C(=O)N[C@H](C(=O)N[C@@H](CCC(=O)O)C(=O)N[C@@H](Cc1c[nH]c2ccccc12)C(=O)N[C@@H](CC(C)C)C(=O)N[C@@H](CCCNC(=N)N)C(=O)N[C@@H](CCCCN)C(=O)N[C@@H](CCCCN)C(=O)N[C@@H](CC(C)C)C(=O)N[C@@H](CCC(N)=O)C(=O)N[C@@H](CC(=O)O)C(=O)N[C@H](C(=O)N[C@@H](Cc1cnc[nH]1)C(=O)N[C@@H](CC(N)=O)C(=O)N[C@@H](Cc1ccccc1)C(N)=O)C(C)C)C(C)C [M-PTH(1-34)] (H-AVAEIQLMHQ[hArg]AKWLNSMRRVEWLRKKLQDVHNF-NH2) | native-like bioavailability |  |
| CSCC[C@H](NC(=O)[C@H]1CCC[C@@H]1NC(=O)[C@H](CCC(N)=O)NC(=O)[C@H]1CCC[C@@H]1NC(=O)[C@H](CCC(=O)O)NC(=O)C(C)(C)NC(=O)[C@@H](NC(=O)[C@H]1CCC[C@@H]1N)C(C)C)C(=O)N[C@@H](Cc1cnc[nH]1)C(=O)N[C@@H](CCC(N)=O)C(=O)N[C@@H](CCCCNC(=N)N)C(=O)N[C@@H](C)C(=O)N[C@@H](CCCCN)C(=O)N[C@H]1CCC[C@@H]1C(=O)N[C@@H](CC(C)C)C(=O)N[C@@H](CC(N)=O)C(=O)N[C@@H](CO)C(=O)N[C@H]1CCC[C@@H]1C(=O)N[C@@H](CCCNC(=N)N)C(=O)N[C@@H](CCCNC(=N)N)C(=O)N[C@H](C(=O)N[C@H]1CNC[C@@H]1C(=O)N[C@@H](Cc1c[nH]c2ccccc12)C(=O)N[C@@H](CC(C)C)C(=O)N[C@@H](CCCNC(=N)N)C(=O)N[C@H]1CNC[C@@H]1C(=O)N[C@@H](CCCCN)C(=O)N[C@@H](CC(C)C)C(=O)N[C@@H](CCC(N)=O)C(=O)N[C@H]1CCC[C@@H]1C(=O)N[C@H](C(=O)N[C@@H](Cc1cnc[nH]1)C(=O)N[C@@H](CC(N)=O)C(=O)N[C@H]1CCC[C@@H]1C(N)=O)C(C)C)C(C)C [M-X1,5,7-FcycD6, XVUEXQXMHQ^hRAKXLNSXRRVZWLRZKLQXVHNX--NH2] ({ACPC(1S,2S)}-V[Aib]E[X12]Q[X12]MHQ[hArg]AK[X12]LNS[X12]RRV[X13]WLR[X13]KLQ[X12]VHN-{NH(1S,2S-2-CONH2-cPent)}) |  | good stability |
